Data: ChEMBL document CHEMBL3885861, “Open TG-GATES”

Species on record: Rattus norvegicus
Experiment: Open TG-GATES - Regimen: Single
Format: toxicity, organism-based, Sprague-Dawley
Design: regimen Single, gender Male, age 6 weeks
Conditions: in vivo, po, 100 mg/kg, route gavage, dose level Middle; for APTT / Bas / Eos / Fbg / Hb / Ht / Lym / MCH / MCHC / MCV / Mono / Neu / PT / Plat / RBC / Ret / WBC: tissue Blood; for KIDNEY_L / KIDNEY_R / KIDNEY_TOTAL: tissue Kidney; for LIVER: tissue Liver; for A/G / ALP / ALT / AST / BUN / CRE / Ca / Cl / DBIL / GLC / IP / K / LDH / Na / PL / RALB / TBIL / TC / TG / TP / gamma-GTP: tissue Plasma

Q: What does the source list for CCOC(=O)C(C)(C)Oc1ccc(Cl)cc1 [CLOFIBRATE]?
A: TERMINAL_BW (9 h): 222.9 g; APTT (9 h): 17.6 s; Bas (9 h): 0%; Eos (9 h): 1%; Fbg (9 h): 227.4 mg/dL; Hb (9 h): 13.3 g/dL; Ht (9 h): 38.2%; Lym (9 h): 80.2%; MCH (9 h): 21 pg; MCHC (9 h): 34.8%; MCV (9 h): 60.5 fL; Mono (9 h): 1.8%; Neu (9 h): 16.6%; PT (9 h): 12.9 s; Plat (9 h): 137.6 x10_4/uL; RBC (9 h): 630.2 x10_4/ul; Ret (9 h): 7.4%; WBC (9 h): 82.1 x10_2/uL; KIDNEY_L (9 h): 1 g; KIDNEY_R (9 h): 1 g; KIDNEY_TOTAL (9 h): 2.1 g; LIVER (9 h): 9.6 g; A/G (9 h): 1.6; ALP (9 h): 1028.4 IU/L; ALT (9 h): 26.6 IU/L; AST (9 h): 59.4 IU/L; BUN (9 h): 9.8 mg/dL; CRE (9 h): 0.4 mg/dL; Ca (9 h): 10.4 mg/dL; Cl (9 h): 101.4 meq/L; DBIL (9 h): 0.088 mg/dL; GLC (9 h): 206.4 mg/dL; IP (9 h): 10.3 mg/dL; K (9 h): 3.5 meq/L; LDH (9 h): 182.4 IU/L; Na (9 h): 140.2 meq/L; PL (9 h): 120.4 mg/dL; RALB (9 h): 3.4 g/dL; TBIL (9 h): 0.1 mg/dL; TC (9 h): 59.4 mg/dL; TG (9 h): 73 mg/dL; TP (9 h): 5.6 g/dL; gamma-GTP (9 h): 0.6 IU/L; TERMINAL_BW (24 h): 236 g; APTT (24 h): 19.1 s; Bas (24 h): 0%; Eos (24 h): 1%; Fbg (24 h): 223.8 mg/dL; Hb (24 h): 13.6 g/dL; Ht (24 h): 38.9%; Lym (24 h): 79.8%; MCH (24 h): 21.4 pg; MCHC (24 h): 34.9%; MCV (24 h): 61.4 fL; Mono (24 h): 3.2%; Neu (24 h): 15.4%; PT (24 h): 12.6 s; Plat (24 h): 131 x10_4/uL; RBC (24 h): 633.6 x10_4/ul; Ret (24 h): 7%; WBC (24 h): 93.4 x10_2/uL; KIDNEY_L (24 h): 1 g; KIDNEY_R (24 h): 1 g; KIDNEY_TOTAL (24 h): 2 g; LIVER (24 h): 12 g; A/G (24 h): 1.6; ALP (24 h): 871 IU/L; ALT (24 h): 36 IU/L; AST (24 h): 65.6 IU/L; BUN (24 h): 14.8 mg/dL; CRE (24 h): 0.4 mg/dL; Ca (24 h): 10.9 mg/dL; Cl (24 h): 100.8 meq/L; DBIL (24 h): 0.088 mg/dL; GLC (24 h): 202 mg/dL; IP (24 h): 7.5 mg/dL; K (24 h): 3.7 meq/L; LDH (24 h): 219.2 IU/L; Na (24 h): 139.6 meq/L; PL (24 h): 134.2 mg/dL; RALB (24 h): 3.4 g/dL; TBIL (24 h): 0.1 mg/dL; TC (24 h): 60.4 mg/dL; TG (24 h): 106.4 mg/dL; TP (24 h): 5.6 g/dL; gamma-GTP (24 h): 1 IU/L
